# Assay results taken from US8481551B2, “Gyrase and topoisomerase IV inhibitors” (Vertex Pharmaceuticals Incorporated, priority 2011, dated 2013).
# Where a name gives a salt, the structure may show the parent alone.
# Experiments:
# [1] = test system: β-haemolytic streptococci (Groups A, B, C and G); experiment: Gyrase MIC, microdilution broth method (Protocol 1); format: cell-based; details: 28 isolates tested
# S. aureus (ATCC 29213) = experiment: Neutropenic rat thigh infection model; format: in vivo, Sprague Dawley rats
# From the text: Animals: Specific-pathogen-free, male Sprague Dawley rats weighing between 76 to 100 grams were obtained from Charles River Laboratories, Inc. (Wilmington, Mass.) and utilized in this experiment. Animals were allowed to acclimate for a minimum of seven (7) days before study commencement. Bacteria: The methicillin-sensitive Staphylococcus aureus(MSSA) ATCC strain 29213 was utilized for in vivo experimentation. The test isolate was subcultured twice onto standard microbiological agar media (trypticase soy agar with 5% sheep blood). The second transfer was made less than 24 hours before use in the preparation of the thigh infection model inoculum. Neutropenic Rat Thigh Infection Model: To induce neutropenia, rats were treated with the immunosuppressant cyclophosphamide at 150 mg/kg, administered in 1 ml by intraperitoneal (IP) injection, three day prior to infection. Rats were infected by an intramuscular (IM) 0.2 ml injection into both rear thighs with a 10^7 cfu/ml methicillin-sensitive Staphylococcus aureus 29213 suspension in normal saline. After increasing amounts of time (2-26 hours) the two rear thighs of each animal were harvested, rinsed with sterile saline, weighed, then placed in 50 ml sterile normal saline and placed on wet ice until homogenization. Approximately one-half of the total homogenized sample volume was passed through a large pore filter (to remove cartilage and large clumped pieces of tissue), diluted in saline and cultured onto agar media plates (trypticase soy agar with 5% sheep blood). All culture plates were incubated at approximately 37° C. for 18-24 hours. Colony-forming units were enumerated (in cfu/ml of homogenate) and the median for each treatment and control group was calculated. […] The median cfu/ml per group was compared to the initial bacterial density at 2 hours (Early Control) or that of the time-matched vehicle control group (Late Control; LC) group harvested simultaneously. […] After 2 hours a single group of rats (Early Control (EC) was euthanized and the thighs harvested, homogenized and plated to quantitate S. aureus burdens. The additional infected rats were treated by oral gavage with Vehicle at 10 ml/kg (20% Cavitron/1% HPMCAS-MG; […] The 8-hour treatment groups received a single treatment (QD) and were euthanized and thighs collected for cfu determination 8 hours post treatment (QD), while the 24-hour treatment groups received 2 doses 12 hours apart (q12 h) and were euthanized and thighs collected 24 hours post treatment. […] After 2 hours a single group of rats (Early Control (EC)) was euthanized and the thighs harvested, homogenized and plated to quantitate S. aureus burdens. The additional infected rats were treated by oral gavage with Vehicle at 10 ml/kg (10% Vitamin E/TPGS; […] The 8-hour treatment groups received a single treatment (QD) and were euthanized and thighs collected for cfu determination 8 hours post treatment (QD), while the 24 hour treatment groups received 2 doses 12 hours apart (q12 h) and were euthanized and thighs collected 24 hours post treatment.
# Proteus mirabilis = experiment: Gyrase MIC against Gram negatives, microdilution broth method (Protocol 2); format: cell-based; details: 12 isolates tested
# Prevotella spp. = experiment: Gyrase MIC, agar dilution method (Protocol 3); format: cell-based; details: 13 isolates tested
# Enterococcus faecalis = experiment: Gyrase MIC, microdilution broth method (Protocol 1)
# Enterococcus faecium = experiment: as above
# Moraxella catarrhalis = experiment: Gyrase MIC against Gram negatives, microdilution broth method (Protocol 2); format: cell-based
# Nocardia caviae = experiment: MIC determination procedure for Mycobacterium species (Protocol 4); format: cell-based; details: Nocardia otitidiscaviarum; Nocardia caviae 2497; Protocol 4; read-out: MIC
# Mycobacterium avium = experiment: as above; format: cell-based
# Enterobacter cloacae = experiment: Gyrase MIC against Gram negatives, microdilution broth method (Protocol 2); format: cell-based; details: 12 isolates tested
# Fusobacterium spp. = experiment: Gyrase MIC, agar dilution method (Protocol 3); format: cell-based; details: 16 isolates tested
# N. nova = experiment: MIC determination procedure for Mycobacterium species (Protocol 4); format: cell-based; details: N. nova 10
# [2] = 8 hours after the first dose, 10 mg/kg oral
# [3] = 8 hours after the first dose, 60 mg/kg oral
# [4] = 8 hours after the first dose, 100 mg/kg oral
# [5] = Table 9: 10 mg/kg oral, QD, 8 Hours
# [6] = Table 9: 10 mg/kg oral, q12 h, 24 Hours
# [7] = Table 9: 60 mg/kg oral, QD, 8 Hours
# [8] = Table 9: 60 mg/kg oral, q12 h, 24 Hours
# [9] = Table 9: 100 mg/kg oral, QD, 8 Hours
# [10] = Table 9: 100 mg/kg oral, q12 h, 24 Hours
# [11] = Moraxella catarrhalis, 26 isolates tested
smiles,measurement,setting,value
"CCNC(=O)Nc1nc2cc(-c3cnc(C(C)(C)O)nc3)cc([C@H]3CCCO3)c2[nH]1 [Compound 13, methanesulfonic acid salt of 1-ethyl-3-[5-[2-(1-hydroxy-1-methyl-ethyl)pyrimidin-5-yl]-7-[(2R)-tetrahydrofuran-2-yl]-1H-benzimidazol-2-yl]urea]",MIC90,[1],0.25 µg/mL
same,MIC Range,[1],0.06 to 0.5 µg/mL
same,bacterial growth compared to early control,S. aureus (ATCC 29213); [2],held the bacterial growth of SA 29213 to at least the point of stasis
same,log reduction in burdens compared to time-matched control,S. aureus (ATCC 29213); [2],~1.5 log
same,decrease of bacterial burden versus early control,S. aureus (ATCC 29213); [3],~0.4 logs
same,log reduction in burdens compared to time-matched control,S. aureus (ATCC 29213); [3],~1.7 log
same,decrease of bacterial burden versus early control,S. aureus (ATCC 29213); [4],~0.5 logs
same,log reduction in burdens compared to time-matched control,S. aureus (ATCC 29213); [4],1.8 log
same,decrease in bacterial density compared to early control,"S. aureus (ATCC 29213); 24 hours, second dose at 12 hours, 60 and 100 mg/kg",approximately 1 log
same,reduction of bacterial density compared to late control,"S. aureus (ATCC 29213); 24 hours, 10 mg/kg treatment group",~1.1 log
same,cfu levels greater than the early control,"S. aureus (ATCC 29213); 24 hours, 30 mg/kg (so in the source), did not appear effective",0.3 logs
same,reduction of bacterial density compared to late control,"S. aureus (ATCC 29213); 24 hours, 60 mg/kg",2.85 logs
same,reduction of bacterial density compared to late control,"S. aureus (ATCC 29213); 24 hours, 100 mg/kg",~3 logs
same,Median Thigh Burden (Log cfu/mL),"S. aureus (ATCC 29213); Table 9: 10 mg/kg oral gavage, single treatment (QD), 8 Hours",5.15 Log cfu/mL
same,Median Thigh Burden (Log cfu/mL),"S. aureus (ATCC 29213); Table 9: 10 mg/kg oral, 2 doses 12 hours apart (q12 h), 24 Hours",6.02 Log cfu/mL
same,Log Difference vs. Early Control,S. aureus (ATCC 29213); [5],−0.15
same,Log Difference vs. Late Control (8-hour),S. aureus (ATCC 29213); [5],−1.49
same,Log Difference vs. Early Control,S. aureus (ATCC 29213); [6],0.72
same,Log Difference vs. Late Control (24-hour),S. aureus (ATCC 29213); [6],−1.14
same,Log Difference vs. Early Control,S. aureus (ATCC 29213); [7],−0.35
same,Log Difference vs. Late Control (8-hour),S. aureus (ATCC 29213); [7],−1.69
same,Median Thigh Burden (Log cfu/mL),S. aureus (ATCC 29213); [7],4.95 Log cfu/mL
same,Log Difference vs. Early Control,S. aureus (ATCC 29213); [8],−0.99
same,Log Difference vs. Late Control (24-hour),S. aureus (ATCC 29213); [8],−2.85
same,Median Thigh Burden (Log cfu/mL),S. aureus (ATCC 29213); [8],4.31 Log cfu/mL
same,Log Difference vs. Early Control,S. aureus (ATCC 29213); [9],−0.48
same,Log Difference vs. Late Control (8-hour),S. aureus (ATCC 29213); [9],−1.82
same,Median Thigh Burden (Log cfu/mL),S. aureus (ATCC 29213); [9],4.82 Log cfu/mL
same,Log Difference vs. Early Control,S. aureus (ATCC 29213); [10],−1.13
same,Log Difference vs. Late Control (24-hour),S. aureus (ATCC 29213); [10],−2.99
same,Median Thigh Burden (Log cfu/mL),S. aureus (ATCC 29213); [10],4.17 Log cfu/mL
same,MIC90,Proteus mirabilis,> 8 µg/mL
same,MIC90,Prevotella spp.,> 16 µg/mL
same,MIC90,Enterococcus faecalis,0.25 µg/mL
same,MIC Range,"Enterococcus faecalis; 34 isolates tested, Protocol 1",0.03 to 0.25 µg/mL
same,MIC,Enterococcus faecalis; ATCC29212,0.081 µg/mL
same,MIC90,Enterococcus faecium,0.5 µg/mL
same,MIC Range,"Enterococcus faecium; 33 isolates tested, Protocol 1",0.12 to 0.5 µg/mL
same,MIC,"Enterococcus faecium; ATCC49624, Enterococcus faecium ATCC 49624, Protocol 1",0.25 µg/mL
same,MIC,"Enterococcus faecium; ATCC49624, Enterococcus faecium ATCC 49624 with Laked Horse Blood, Protocol 1",0.39 µg/mL
same,MIC,"Moraxella catarrhalis; ATCC25238, Moraxella catarrhalis ATCC 25238",0.071 µg/mL
same,MIC,"Moraxella catarrhalis; ATCC49143, Moraxella catarrhalis ATCC 49143",0.04 µg/mL
same,MIC90,Moraxella catarrhalis; [11],0.12 µg/mL
same,MIC Range,Moraxella catarrhalis; [11],0.015 to 0.12 µg/mL
same,MIC,Nocardia caviae,2 µg/mL
same,MIC,Mycobacterium avium; M. avium 3404.4,0.94 µg/mL
same,MIC,Mycobacterium avium; M. avium Far,0.94 µg/mL
same,MIC,Mycobacterium avium; Mycobacterium avium 103,0.47 µg/mL
same,MIC90,Enterobacter cloacae,> 8 µg/mL
same,MIC90,Fusobacterium spp.,2 µg/mL
same,MIC Range,Fusobacterium spp.,1 to 4 µg/mL
same,MIC,N. nova,8 µg/mL
